The text below walks through data of patent US9006185B2, “Use of cell-permeable peptide inhibitors of the JNK signal transduction pathway for the treatment of various diseases” (Xigen Inflammation Ltd., priority 2008, dated 2015).

“Also recorded” adds a separate entry of the source.

Experiment [1] has as its system Varicella-Zoster Virus (VZV). The experiment can be described thus: VZV-BAC-Luc replication in HFFs, luciferase assay. The class given is cell-based, human. As to conditions: 24 h, 0.25, 0.5, 1.0 μM tested. As to the method: Virus yield was measured by luciferase assay. Samples were in triplicate and the average luminescence is shown; error bars represent the standard deviation of the mean.

Experiment [2] deals with Varicella-Zoster Virus (VZV). The experiment can be described thus: Plaque reduction assay against VZV in HFFs. The class given is cell-based, human. As to conditions: for Spread of VZV (pfu) ± SD: 24 hours. As to the method:
Additionally, inhibitors of cell functions may be toxic to cells, which could non-specifically prevent virus growth. […] Since this may falsify the results, a cytotoxicity assay was carried out first, determining the tolerance of the cultured cells to the test compound. Subsequently, a plaque reduction assay was carried out and then activity of the JNK inhibitor peptide XG-102 (SEQ ID NO: 11) was tested with respect to […] (VZV) in infected cells. • A) Determination of the Cytotoxicity of all-D Retro-Inverso Ib(s) Peptides: • For determination of toxicity, cultured cells (human foreskin fibroblasts (HFFs)) were seeded in 96-well tissue culture plates. Medium containing DMSO (same level as 5 μM XG-102 (SEQ ID NO: 11)), or XG-102 (SEQ ID NO: 11) was added at several concentrations of (1, 2, and 5 μM) for 24 h. Subsequently, a Neutral Red assay was carried out. Neutral Red colorimetric assays for cytotoxicity assays (in sets of 6 replicates) were used to set the maximum dose for subsequent efficacy assays (as performed in Taylor et al, 2004, J. Virology, 78:2853-2862). Live cells absorb Neutral Red and, accordingly, the level of absorbance is a quantitative measure of cell viability and number. Neutral Red uptake is directly proportional to the number of cells and also reflects normal endocytosis. Therefore, a brief pulse of Neutral Red was added to the medium at 0 or 24 hours. After fixation and extraction, dye was added and the amount of dye in each sample was measured in an ELISA plate reader at 540 nm (see FIG. 4). […] In this plaque reduction assay, confluent human foreskin fibroblasts (HFFs) in 24-well plates were inoculated with VZV-infected HFFs at a ratio of 1:100 (multiplicity of infection MOI=0.01) and adsorbed to the cells for 2 hours. The excess virus was washed out, and medium containing 0 (DMSO only), 0.5, 1, or 2 μM XG-102 (SEQ ID NO: 11) was added. One sample was taken at this time to measure the initial level of infection; wherein each well contained ˜150 pfu. After 24 hours, duplicate wells were trypsinized, and then the cell suspensions were titered on MeWo cell monolayers in triplicate to determine the number of VZV-infected cells in each sample. During unrestricted growth, VZV usually increases by 10-fold over 1 day because it propagates by cell-cell spread. […]

The subject of a further experiment is hAPP Tg mice. The experiment can be described thus: Morris Water Maze in hAPP transgenic mice. The class given is in vivo. As to the method: i) Introduction • The study was designed to evaluate the efficacy of the test substance (XG-102, SEQ ID NO: 11) on behavioral, biochemical and histological markers using 5 months (±2 weeks) old female hAPP Tg mice. Therefore, mice were treated every two or three weeks up to 4 months and in the end of the treatment period behavior was evaluated in the Morris Water Maze. At sacrifice brain, CSF and blood were collected. Aβ40 and Aβ42 levels were determined in four different brain homogenate fractions as well as in CSF of Tg mice. Plaque load was quantified in the cortex and the hippocampus of 8 Tg animals per treatment group.
ii) Animals • Female Tg mice with a C57BL/6×DBA background and an age of 5 months (±2 week) were randomly assigned to treatment groups 1 to 3 (n=12). […]
v) Morris Water Maze (MWM) • The Morris Water Maze (MWM) task was conducted in a black circular pool of a diameter of 100 cm. […] For the quantification of escape latency (the time [second]—the mouse needed to find the hidden platform and therefore to escape from the water), of pathway (the length of the trajectory [meter] to reach the target) and of the abidance in the goal quadrant a computerized tracking system was used. […] The camera detected the signal of the light emitting diode (LED), which was fixed with a little hairgrip on the mouse's tail. […]

With `CC(C)C[C@@H](NC(=O)[C@@H](Cc1ccccc1)NC(=O)[C@H]1CCCN1C(=O)[C@@H](CCC(N)=O)NC(=O)[C@H](NC(=O)[C@H]1CCCN1C(=O)[C@@H](CCCNC(=N)N)NC(=O)[C@@H](CO)NC(=O)[C@@H](CCC(N)=O)NC(=O)[C@H](N)CC(=O)O)C(C)C)C(=O)N[C@H](CC(N)=O)C(=O)N[C@H](CC(C)C)C(=O)N[C@@H](C(=O)N[C@@H](C(=O)N1CCC[C@@H]1C(=O)N[C@H](CCCNC(=N)N)C(=O)N[C@H](CCCCN)C(=O)N1CCC[C@@H]1C(=O)N[C@H](CCCNC(=N)N)C(=O)N1CCC[C@@H]1C(=O)N1CCC[C@@H]1C(=O)N[C@H](CCCNC(=N)N)C(=O)N[C@H](CCCNC(=N)N)C(=O)N[C@H](CCCNC(=N)N)C(=O)N[C@H](CCC(N)=O)C(=O)N[C@H](CCCNC(=N)N)C(=O)N[C@H](CCCNC(=N)N)C(=O)N[C@H](CCCCN)C(=O)N[C@H](CCCCN)C(=O)N[C@H](CCCNC(=N)N)C(=O)NCC(=O)O)[C@H](C)O)[C@H](C)O` [XG-102], the “concentration preventing VZV replication (lowest concentration tested)” value in experiment [1] was no more than 0.25 µM. Besides, the “Spread of VZV (pfu) ± SD” value in experiment [2] (0.5 μM) turned out to be 260 ± 53 pfu; in experiment [2] (1.0 μM) it was 212 ± 48 pfu; in experiment [2] (2.0 μM), 312 ± 79 pfu. Also, the “antiviral effect against VZV” value in experiment [2] (0.5, 1, 2 μM) is recorded as “potent inhibitor of Varizella Zoster Virus (VZV); also recorded: strong antiviral effect at all the concentrations tested”. Also, the VZV yields in experiment [2] (all the concentrations tested (0.5-2 μM)) was 200-300 pfu. Besides, the “learning performance in the MWM” value in the experiment on hAPP Tg mice (0.1 mg/kg) is “a tendency to have worse learning performance between day 1 and day 4”. Also, the “spatial learning in the MWM” value in the experiment with hAPP Tg mice (0.1 mg/kg every two weeks or 10 mg/kg every three weeks s.c., four months) is reported as “remained widely uninfluenced”.
